According to PMC6301967, “Molecular comparison of Neanderthal and Modern Human adenylosuccinate lyase” (Scientific Reports, 2018):
Values belong to the molecule of their own block, whether it stands above or below them.

Columns and labels:
[1] = biological target: T1, hADSL (modern human adenylosuccinate lyase) (Homo sapiens, UniProt P30566); assay: small angle X-ray scattering; type: binding; settings: 1 mM product(s), with fumarate; 20 °C; no curve change with AICAR alone
T1 construct: gene ADSL; N-terminal thrombin-cleavable His tag (pET-14b), E. coli Rosetta2 (DE3); tag cut, but kept for the domain 3 mutants; homotetramer; Val429
T1 sequence (P30566 1-484): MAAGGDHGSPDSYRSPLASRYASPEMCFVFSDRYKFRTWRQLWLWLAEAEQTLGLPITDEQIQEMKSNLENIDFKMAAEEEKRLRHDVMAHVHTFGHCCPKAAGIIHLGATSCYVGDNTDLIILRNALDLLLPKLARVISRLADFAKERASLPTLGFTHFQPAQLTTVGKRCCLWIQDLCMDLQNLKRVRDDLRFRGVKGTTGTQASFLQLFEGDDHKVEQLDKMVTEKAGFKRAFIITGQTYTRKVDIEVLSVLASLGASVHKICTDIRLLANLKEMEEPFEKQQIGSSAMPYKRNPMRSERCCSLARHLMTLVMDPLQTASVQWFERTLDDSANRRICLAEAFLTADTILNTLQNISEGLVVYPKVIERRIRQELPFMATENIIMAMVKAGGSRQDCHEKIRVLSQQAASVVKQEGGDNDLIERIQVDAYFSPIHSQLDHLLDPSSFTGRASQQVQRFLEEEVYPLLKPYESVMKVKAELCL

[2] = biological target: T2, nADSL (Neanderthal adenylosuccinate lyase); assay: isothermal titration calorimetry; type: binding, Homo sapiens neanderthalensis; settings: 10 mM HEPES pH 7.5, 100 mM NaCl, 1 mM DTT, 20 °C; 90 µM protein in cell
T2 construct: gene ADSL; Neanderthal (ancestral Ala429) variant, equals human ADSL with V429A; N-terminal thrombin-cleavable His tag (pET-14b), cut; E. coli Rosetta2 (DE3); homotetramer

[3] = biological target: T1, hADSL (modern human adenylosuccinate lyase); assay: isothermal titration calorimetry; type: binding
[4] = test system: T2, nADSL (Neanderthal adenylosuccinate lyase); assay: absorbance at […] nm, SAMP breakdown; type: biochemical, Homo sapiens neanderthalensis; settings: forward reaction, room temperature; positive cooperativity, Hill coefficient 1.8; read-out: K0.5
[5] = test system: T2, nADSL (Neanderthal adenylosuccinate lyase); assay: absorbance at […] nm, SAMP formation; type: biochemical, Homo sapiens neanderthalensis; settings: reverse reaction, 1 mM AMP, room temperature; Michaelis-Menten fit
[6] = biological target: T1, hADSL (modern human adenylosuccinate lyase); assay: absorbance at […] nm, SAMP formation; type: biochemical; settings: reverse reaction, 1 mM AMP, room temperature; Michaelis-Menten fit
[7] = biological target: the molecule itself; assay: SEC; Superdex 200 in 10 mM HEPES pH 7.5, 100 mM NaCl, 1 mM DTT; last step of the purification; single peak
purified protein = substrate: O=C(O)C[C@H](Nc1ncnc2c1ncn2[C@@H]1O[C@H](COP(=O)(O)O)[C@@H](O)[C@H]1O)C(=O)O; assay: purified protein; type: biochemical, Homo sapiens; settings: room temperature
[8] = biological target: the molecule itself; assay: crystal structure; nADSL apo (1.7 Å), with AMP/fumarate (2.3 Å) and with AICAR/fumarate; vapour diffusion, 10 mg/mL protein; homotetramer
[9] = His tag not cleaved, 0.01 mg/mL enzyme, cooperative model fit

Molecule: NC(=O)c1ncn([C@@H]2O[C@H](COP(=O)(O)O)[C@@H](O)[C@H]2O)c1N [AICAR]
- small angle X-ray scattering [1]: addition of both AMP/fumarate or AICAR/fumarate to the protein results in a similar altered scattering

- Kd [2]: ~25 µM
- Kd [3]: ~25 µM
Molecule: Nc1ncnc2c1ncn2[C@@H]1O[C@H](COP(=O)(O)O)[C@@H](O)[C@H]1O [AMP]

- Km [4]: 1.1 µM
Molecule: O=C(O)C[C@H](Nc1ncnc2c1ncn2[C@@H]1O[C@H](COP(=O)(O)O)[C@@H](O)[C@H]1O)C(=O)O [SAMP]

Molecule: O=C(O)/C=C/C(=O)O [fumarate]
- Km [5]: 66 µM
- Km [6]: 80 µM

B1: modern human adenylosuccinate lyase (enzyme, UniProt P30566 1-484, looked up)
chain: MAAGGDHGSPDSYRSPLASRYASPEMCFVFSDRYKFRTWRQLWLWLAEAEQTLGLPITDEQIQEMKSNLENIDFKMAAEEEKRLRHDVMAHVHTFGHCCPKAAGIIHLGATSCYVGDNTDLIILRNALDLLLPKLARVISRLADFAKERASLPTLGFTHFQPAQLTTVGKRCCLWIQDLCMDLQNLKRVRDDLRFRGVKGTTGTQASFLQLFEGDDHKVEQLDKMVTEKAGFKRAFIITGQTYTRKVDIEVLSVLASLGASVHKICTDIRLLANLKEMEEPFEKQQIGSSAMPYKRNPMRSERCCSLARHLMTLVMDPLQTASVQWFERTLDDSANRRICLAEAFLTADTILNTLQNISEGLVVYPKVIERRIRQELPFMATENIIMAMVKAGGSRQDCHEKIRVLSQQAASVVKQEGGDNDLIERIQVDAYFSPIHSQLDHLLDPSSFTGRASQQVQRFLEEEVYPLLKPYESVMKVKAELCL
notes: adenylosuccinate lyase (ADSL), modern human (Val429); Expressed from pET-14b with a thrombin-cleavable N-terminal histidine tag; also called hADSL; native hADSL; source: E. coli Rosetta2 (DE3), purified (HisTrap, thrombin cleavage, benzamidine-sepharose, Superdex 200); not shown: histidine tag, N-terminal, cleaved
- stoichiometry N [7]: 4
- K0.5 (purified protein; forward reaction, positive cooperativity, Hill coefficient 1.6): 1.1 µM

B2: hADSL (modern human adenylosuccinate lyase) (Homo sapiens; R426H) (protein)
chain: MAAGGDHGSPDSYRSPLASRYASPEMCFVFSDRYKFRTWRQLWLWLAEAEQTLGLPITDEQIQEMKSNLENIDFKMAAEEEKRLRHDVMAHVHTFGHCCPKAAGIIHLGATSCYVGDNTDLIILRNALDLLLPKLARVISRLADFAKERASLPTLGFTHFQPAQLTTVGKRCCLWIQDLCMDLQNLKRVRDDLRFRGVKGTTGTQASFLQLFEGDDHKVEQLDKMVTEKAGFKRAFIITGQTYTRKVDIEVLSVLASLGASVHKICTDIRLLANLKEMEEPFEKQQIGSSAMPYKRNPMRSERCCSLARHLMTLVMDPLQTASVQWFERTLDDSANRRICLAEAFLTADTILNTLQNISEGLVVYPKVIERRIRQELPFMATENIIMAMVKAGGSRQDCHEKIRVLSQQAASVVKQEGGDNDLIEHIQVDAYFSPIHSQLDHLLDPSSFTGRASQQVQRFLEEEVYPLLKPYESVMKVKAELCL
notes: N-terminal thrombin-cleavable His tag (pET-14b), E. coli Rosetta2 (DE3); tag cut, but kept for the domain 3 mutants; homotetramer; Val429
- K0.5 (purified protein; [9]): 0.75 ± 0.06 µM

B3: hADSL (modern human adenylosuccinate lyase) (Homo sapiens; D422Y) (protein)
chain: MAAGGDHGSPDSYRSPLASRYASPEMCFVFSDRYKFRTWRQLWLWLAEAEQTLGLPITDEQIQEMKSNLENIDFKMAAEEEKRLRHDVMAHVHTFGHCCPKAAGIIHLGATSCYVGDNTDLIILRNALDLLLPKLARVISRLADFAKERASLPTLGFTHFQPAQLTTVGKRCCLWIQDLCMDLQNLKRVRDDLRFRGVKGTTGTQASFLQLFEGDDHKVEQLDKMVTEKAGFKRAFIITGQTYTRKVDIEVLSVLASLGASVHKICTDIRLLANLKEMEEPFEKQQIGSSAMPYKRNPMRSERCCSLARHLMTLVMDPLQTASVQWFERTLDDSANRRICLAEAFLTADTILNTLQNISEGLVVYPKVIERRIRQELPFMATENIIMAMVKAGGSRQDCHEKIRVLSQQAASVVKQEGGDNYLIERIQVDAYFSPIHSQLDHLLDPSSFTGRASQQVQRFLEEEVYPLLKPYESVMKVKAELCL
notes: as for B2
- K0.5 (purified protein; [9]): 0.36 ± 0.03 µM

B4: Neanderthal adenylosuccinate lyase (enzyme)
chain: MAAGGDHGSPDSYRSPLASRYASPEMCFVFSDRYKFRTWRQLWLWLAEAEQTLGLPITDEQIQEMKSNLENIDFKMAAEEEKRLRHDVMAHVHTFGHCCPKAAGIIHLGATSCYVGDNTDLIILRNALDLLLPKLARVISRLADFAKERASLPTLGFTHFQPAQLTTVGKRCCLWIQDLCMDLQNLKRVRDDLRFRGVKGTTGTQASFLQLFEGDDHKVEQLDKMVTEKAGFKRAFIITGQTYTRKVDIEVLSVLASLGASVHKICTDIRLLANLKEMEEPFEKQQIGSSAMPYKRNPMRSERCCSLARHLMTLVMDPLQTASVQWFERTLDDSANRRICLAEAFLTADTILNTLQNISEGLVVYPKVIERRIRQELPFMATENIIMAMVKAGGSRQDCHEKIRVLSQQAASVVKQEGGDNDLIERIQADAYFSPIHSQLDHLLDPSSFTGRASQQVQRFLEEEVYPLLKPYESVMKVKAELCL
notes: Expressed from pET-14b with a thrombin-cleavable N-terminal histidine tag; also called nADSL; ancestral Ala429 ADSL variant; source: E. coli Rosetta2 (DE3), purified (HisTrap, thrombin cleavage, benzamidine-sepharose, Superdex 200); not shown: histidine tag, N-terminal, cleaved
- stoichiometry N [8]: 4
